# Test results as given in patent US11407781B2, “Equatorially modified polymer linked multimers of guanosine-3′, 5′-cyclic monophosphates” (GRAYBUG VISION, INC., priority 2016, dated 2022).
# Marks after values point to notes of the source that are not given here.
# Experiments:
# [1] = Determination of lipophilicity by RP-18 HPLC retention (log k′g); format: physicochemical; conditions: RP-18 reversed phase HPLC, gradient elution, ion pair chromatography with triethylammonium cation
# From the text: Lipophilicity information is thus often only obtained by fragment analysis and corresponding calculations.
# An established HPLC method, which is based on retention data on RP-18 reversed phase silica during gradient elution, was used for the determination of lipohilicity.
# Instead of log P the method yields the descriptor log k′g, ranking analytes according to their lipophilicity on a logarithmic scale as well. Since charged molecules such as cyclic nucleotides have only hardly any retention on reversed phases, ion pair chromatography with the lipophilic triethylammonium cation is used.
# [2] = test system: primary rod-like cells derived from the rd1 mutant mouse; experiment: Primary rod-like cells: cell death by Ethidium Homodimer assay; conditions: compared to Rp-8-Br-cGMPS and Rp-8-Br-PET-cGMPS; 0.1 μM and 1 μM, 24 hours (FIG. 2)
# Procedure: Legend: Primary rod-like cells derived from the rd1 mutant mouse undergo spontaneous cell death 11 days after differentiation. Rod-like cells were exposed to compounds at day 10 of culture and analyzed 24 hours later. A.: 0.1 μM concentration of tested compounds. B.: 1 μM concentration of tested compounds. Percentage of dying cells was evaluated by Ethidium Homodimer assay. Untreated cells are shown as control sample (black bar). Reference compounds Rp-8-Br-cGMPS and Rp-8-Br-PET-cGMPS are shown as dashed bars. Data are shown as means±SD from at least three biological replicates.
# Primary rod-like cells were obtained by isolating stem cells from the ciliary epithelium of murine eyes.^15 The cells are cultured until they form neurospheres in DMEM/F12 with FGF (20 ng/ml), Heparin (2 μg/ml), N2 (1x), Glucose (0.6%), HEPES (5 μM) and 1% Penicillin/Streptomycin. Single neurospheres are picked and plated onto glass slides coated with ECM in the same medium as before with the exception of reduced FGF concentration (10 ng/ml) to induce adhesion. […] To assess cell death, microphotographs were taken from three different slides for each compound concentration and the total number of cells, as well as the number of dying Ethidium Homodimer positive cells, were counted in each picture. […]
# [3] = test system: photoreceptors of rd1 explants; experiment: Retinal explants: photoreceptor cell death by TUNEL stain; format: cell-based, mouse; conditions: 50 μM
# Procedure: Legend: The animals at the age of postnatal day 5 (PN5) were killed by decapitation and retinas were dissected out with retinal pigment epithelium attached as described previously.^9 The retinas were flattened out on the membranes of commercially available 6-well culture inserts, after which 1.5 ml of a custom made culturing medium was added to each well. These explants were then kept in culture for two days without any treatment after which the test analogue of the invention at the desired concentration was added at a medium change at PN7 (“7” in Figure). There was then a new medium change at PN9 (“9” in Figure), with same concentration of analogue of the invention, upon which the cultures were kept until PN11 (“11” in Figure). At this time point the experiment was finished by a fixation procedure. This paradigm is therefore called PN5+2+4. […]
# Legend: Effects of selected analogues at given concentrations of the invention on the cell death of photoreceptors of rd1 explants. The cell death was assessed by so called TUNEL stain on fixated and sectioned material, after which the number of dying cells was counted and analysed, and compared with that from untreated rd1 explants. In order to allow more direct comparisons between the different analogues and concentrations a ratio of treated/untreated specimens was calculated. […]
Structure (SMILES),log k′g [1],further results
"Cc1ccc(-c2cn3c(=O)c4nc(Br)n([C@@H]5O[C@@H]6COP(O)(=S)O[C@H]6[C@H]5O)c4nc3[nH]2)cc1 (single isomer, unassigned) [Compound 22, 8-Bromo-(4-methyl-β-phenyl-1,N^2-etheno)guanosine-3′,5′-cyclic monophosphorothioate, Rp-isomer]",3.134,
"O=c1c2nc(Br)n([C@@H]3O[C@@H]4CO[P@@](=O)(S)O[C@H]4[C@H]3O)c2nc2[nH]c(-c3ccc4ccccc4c3)cn12 (single isomer, unassigned) [Compound 24, 8-Bromo-(2-naphthyl-1,N^2-etheno)guanosine-3′,5′-cyclic monophosphorothioate, Rp-isomer]",3.426,
"Nc1nc2c(nc(Sc3ccccc3N)n2[C@@H]2O[C@@H]3CO[P@@](=O)(S)O[C@H]3[C@H]2O)c(=O)[nH]1 (single isomer, unassigned) [Compound 30, 8-(2-Aminophenylthio)guanosine-3′,5′-cyclic monophosphorothioate, Rp-isomer]",1.974,
"Nc1nc2c(nc(SCC(=O)Nc3ccccc3)n2[C@@H]2O[C@@H]3COP(O)(=S)O[C@H]3[C@H]2O)c(=O)[nH]1 (single isomer, unassigned) [Compound 31, 8-Phenylamidomethylthioguanosine-3′,5′-cyclic monophosphorothioate, Rp-isomer]",2.105,
"O=C(CSc1nc2c(=O)n3cc(-c4ccccc4)[nH]c3nc2n1[C@@H]1O[C@@H]2COP(O)(=S)O[C@H]2[C@H]1O)Nc1ccccc1 (single isomer, unassigned) [Compound 33, β-Phenyl-1,N^2-etheno-8-phenylamidomethylthioguanosine-3′,5′-cyclic monophosphorothioate, Rp-isomer]",3.411,
"O=c1c2nc(Sc3ccc(O)cc3)n([C@@H]3O[C@@H]4COP(O)(=S)O[C@H]4[C@H]3O)c2nc2[nH]c(-c3ccccc3)cn12 (single isomer, unassigned) [Compound 34, 8-(4-Hydroxyphenylthio)-β-phenyl-1,N^2-ethenoguanosine-3′,5′-cyclic monophosphorothioate, Rp-isomer]",3.078,
"Nc1nc2c(ncn2[C@@H]2O[C@@H]3COP(O)(=S)O[C@H]3[C@H]2O)c(=O)[nH]1 (some centres unmarked) [A, Rp-cGMPS, reference compound]",0.894,
"Nc1nc2c(nc(Br)n2[C@@H]2O[C@@H]3COP(O)(=S)O[C@H]3[C@H]2O)c(=O)[nH]1 (some centres unmarked) [B, Rp-8-Br-cGMPS, reference compound]",1.285,
"O=c1c2nc(Br)n([C@@H]3O[C@@H]4CO[P@@](O)(=S)O[C@H]4[C@H]3O)c2nc2[nH]c(-c3ccccc3)cn12 [C, Rp-8-Br-PET-cGMPS, reference compound]",2.831,
"Nc1nc2c(nc(SCC(=O)NCCOCCOCCOCCOCCOCCOCCOCCOCCNC(=O)CSc3nc4c(=O)[nH]c(N)nc4n3[C@@H]3O[C@@H]4COP(O)(=S)O[C@H]4[C@H]3O)n2[C@@H]2O[C@@H]3COP(O)(=S)O[C@H]3[C@H]2O)c(=O)[nH]1 (some centres unmarked) [Compound 1, Guanosine-3′,5′-cyclic monophosphorothioate[Rp]-[8-thiomethylamido-(octaethoxy)-ethylamidomethylthio-8]-guanosine-3′,5′-cyclic monophosphorothioate[Rp]]",2.039*,protective effect against cell death in primary rod-like cells [2]: significantly improved potencies to prevent cell death
"O=C(CSc1nc2c(=O)n3cc(-c4ccccc4)[nH]c3nc2n1[C@@H]1O[C@@H]2COP(O)(=S)O[C@H]2[C@H]1O)NCCOCCOCCOCCOCCOCCOCCOCCOCCNC(=O)CSc1nc2c(=O)n3cc(-c4ccccc4)[nH]c3nc2n1[C@@H]1O[C@@H]2COP(O)(=S)O[C@H]2[C@H]1O (stereo partly drawn) [Compound 2, β-Phenyl-1,N^2-ethenoguanosine-3′,5′-cyclic monophosphorothioate[Rp]-[8-thiomethylamido-(octaethoxy)-ethylamidomethylthio-8]-β-phenyl-1,N^2-ethenoguanosine-3′,5′-cyclic monophosphorothioate[Rp]]",3.236*,protective effect against cell death in primary rod-like cells [2]: significantly improved potencies to prevent cell death
"O=c1c2nc(Br)n(C3OC4COP(O)(=S)OC4C3O)c2nc2[nH]c(-c3ccsc3)cn12 (centres unmarked) [Compound 23, 8-Bromo-(3-thiophen-yl-1, N^2-etheno)guanosine-3′, 5′-cyclic monophosphorothioate]",2.746,
O=c1c2nc(Br)n([C@@H]3O[C@@H]4CO[P@@](O)(=S)O[C@H]4[C@H]3O)c2nc2[nH]c(-c3ccccc3)cn12 [Rp-8-Br-PET-cGMPS],,"photoreceptor cell death, ratio of treated/untreated specimens ([3]; PN5+2+4 paradigm, TUNEL stain, untreated = 1.0): about 0.78; reduction of photoreceptor cell death ([3]; versus untreated): more than 20%"
"Nc1nc2c(ncn2[C@@H]2O[C@@H]3COP(=O)(O)O[C@H]3[C@H]2O)c(=O)[nH]1 [cGMP, guanosine-3′,5′-cyclic monophosphate, reference compound]",0.77,
